Source: US4471116A, “Substituted (10H-phenothiazin-10-L)-propyl-1-piperazines” (Hoffmann-La Roche Inc., priority 1982, dated 1984)
Read-outs that look alike come from different tables or passages of the source.

Tests used:
avoidance behavior = assay: Discrete Avoidance - Rats (avoidance block / escape block); type: in vivo, rat; conditions: for Discrete Avoidance, % Block: Rats, 40 mg/kg, oral
Description: For example, by one procedure, trained rats are placed in experimental chambers equipped with a response lever, a steel grid floor for delivery of electric shock and a loudspeaker for presentation of auditory stimuli. […] The rats can terminate a trial at any point by depression of the response lever. A response during the initial fifteen-second warning tone ends the trial before shock delivery and is considered an avoidance response, while a response occurring during shock delivery is an escape response. Trials are presented every two minutes during a one-hour test session (30 trials per session). […] Compounds are administered to a minimum of three to four rats at each dose level over a range of doses. Rats receive vehicle alone, during control sessions prior to drug administration. Each rat is tested daily or weekly, after a single drug administration, until avoidance behavior returns to pre-drug baseline levels. The session is divided into three consecutive twenty minute (ten trial) segments. Response counts are summed over all subjects at a given dose within each segment. […] This number is expressed as a percentage of the total trials within the segment. […] The lowest dose which produced a 20% block of escape responding (EBD 20) is read from a graphic dose-effect plot. In obtaining these values, percent effect is plotted against the log dose.

Pole-Climb Avoidance = assay: Pole-Climb Avoidance, % Block; type: in vivo, rat; conditions: Rats, 40 mg/kg, oral
Continuous Avoidance [1] = assay: Continuous Avoidance, % Decrease of Responding (Rats); type: in vivo, rat; conditions: 40 mg/kg, oral
Continuous Avoidance [2] = assay: Continuous Avoidance (Squirrel Monkeys); type: in vivo, squirrel monkey; conditions: for Continuous Avoidance, % Decrease of Responding: Squirrel Monkeys, 5 mg/kg, oral
[3] = system: Apomorphine Induced Emesis; assay: Apomorphine Induced Emesis antagonism (Dogs); type: in vivo, dog; conditions: for Apomorphine Induced Emesis % Antagonism: Dogs, 5 mg/kg, subcutaneous
Serum Prolactin = Serum Prolactin Levels (Rats); type: in vivo, rat; conditions: 15 mg/kg, oral
[4] = system: Amphetamine Induced Rotation; assay: Amphetamine Induced Rotation antagonism (S. Nigra Lesioned Rats) / Rotation Antagonism; type: in vivo, rat; conditions: for Amphetamine Induced Rotation % Antagonism: S. Nigra Lesioned Rats, 40 mg/kg, oral
[5] = system: Confinement Motor Activity; assay: Confinement Motor Activity; type: in vivo; conditions: 168 h; Rat, PO, 7 Days Post-Drug; read-out: Confinement Motor Activity DD50
[6] = molecular target: T1, 3H--Spiroperidol Binding-Caudate (Rattus norvegicus, UniProt P61169); assay: biochemical
T1 construct: from tissue; host or cells: caudate (brain)

[7] = system: Dopamine Turnover-Brain Caudate; assay: Dopamine Turnover-Brain, Caudate; type: in vivo; conditions: Rat, 40 mg/kg PO, 7 Days Post-Drug
[8] = system: Dopamine Turnover-Brain Limbic and Remainder; assay: Dopamine Turnover-Brain, Limbic and Remainder; type: in vivo; conditions: Rat, 40 mg/kg PO, 7 Days Post-Drug
[9] = molecular target: T2, Dopamine Adenylate Cyclase (Rattus norvegicus, UniProt P18901); assay: biochemical; conditions: in-vitro, read-out: Dopamine Adenylate Cyclase Inhibition-Limbic IC50
T2 construct: from tissue; host or cells: limbic brain tissue

Prolactin Secretion = Prolactin Secretion (in-vitro); type: cell-based; conditions: Rat, read-out: Prolactin Secretion ID50
[10] = Acute toxicity (LD50) in mice after a single dose; conditions: mouse, in vivo
revertant colonies = assay: Ames procedure (mutagenicity)

T1 sequence (P61169 whole entry): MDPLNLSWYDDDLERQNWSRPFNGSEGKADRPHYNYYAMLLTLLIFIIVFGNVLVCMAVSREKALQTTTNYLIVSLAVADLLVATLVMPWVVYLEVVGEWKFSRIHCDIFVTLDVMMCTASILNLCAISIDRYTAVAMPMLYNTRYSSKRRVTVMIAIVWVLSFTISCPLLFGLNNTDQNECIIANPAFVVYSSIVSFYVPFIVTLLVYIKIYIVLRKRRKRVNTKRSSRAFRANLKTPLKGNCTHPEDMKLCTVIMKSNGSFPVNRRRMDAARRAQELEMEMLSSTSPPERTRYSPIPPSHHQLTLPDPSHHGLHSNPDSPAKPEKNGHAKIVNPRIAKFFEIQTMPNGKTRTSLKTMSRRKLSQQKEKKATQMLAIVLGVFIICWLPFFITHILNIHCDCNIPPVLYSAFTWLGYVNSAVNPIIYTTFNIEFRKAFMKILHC
T2 sequence (P18901 whole entry): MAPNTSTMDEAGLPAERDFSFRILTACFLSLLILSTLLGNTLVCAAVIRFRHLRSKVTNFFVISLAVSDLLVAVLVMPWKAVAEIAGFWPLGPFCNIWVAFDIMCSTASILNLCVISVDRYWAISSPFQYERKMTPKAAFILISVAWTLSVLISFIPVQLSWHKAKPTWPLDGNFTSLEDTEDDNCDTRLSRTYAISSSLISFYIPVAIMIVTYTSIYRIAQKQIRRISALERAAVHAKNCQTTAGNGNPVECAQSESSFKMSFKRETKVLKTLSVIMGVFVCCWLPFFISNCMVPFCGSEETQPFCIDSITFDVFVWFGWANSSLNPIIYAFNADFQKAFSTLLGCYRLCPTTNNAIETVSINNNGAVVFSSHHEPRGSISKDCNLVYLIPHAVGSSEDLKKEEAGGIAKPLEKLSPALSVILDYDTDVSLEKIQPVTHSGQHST

SMILES: CC(C)NC[C@H](O)COc1ccc(OCCN2CCN(CCCN3c4ccccc4Sc4ccc(Cl)cc43)CC2)cc1.Cl.Cl.Cl [Compound A, (S)-1-(1-methylethylamino)-3-[4-[2-[4-[3-(2-chloro-10H-phenothiazin-10-yl)propyl]piperazine-1-yl]ethoxy]phenoxy]-2-propanol trihydrochloride]
- Duration of Sig. Activity (avoidance behavior; 40 mg/kg po): 8 weeks
- Time of Peak Effect (avoidance behavior; 40 mg/kg po): 2 to 10 days
- ED50 (avoidance behavior; 168 h, Rat, PO, 7 Days Post-Drug, read-out: Discrete Avoidance ABD50): 19 mg/kg
- EBD20/ABD50 Ratio (avoidance behavior; Rat, PO, 7 Days Post-Drug): > 2.1
- Discrete Avoidance, % Block (avoidance behavior; single administration, 1-4 hours): 40%
- Discrete Avoidance, % Block (avoidance behavior; 1 week): 84%
- Discrete Avoidance, % Block (avoidance behavior; 2-4 hours): 78%
- Discrete Avoidance, % Block (avoidance behavior; 2 weeks): 80%
- Discrete Avoidance, % Block (avoidance behavior; 3 weeks): 84%
- Discrete Avoidance, % Block (avoidance behavior; 4 weeks): 82%
- Discrete Avoidance, % Block (avoidance behavior; 5 weeks): 56%
- Discrete Avoidance, % Block (avoidance behavior; 6 weeks): 50%
- Discrete Avoidance, % Block (avoidance behavior; 7 weeks): 31%
- Discrete Avoidance, % Block (avoidance behavior; 8 weeks): 30%
- inhibition in vivo at 40 mg/kg (avoidance behavior; Rattus norvegicus, 1 h, 40 mg/kg po, 60 min. post-drug, read-out: Percentage Block of Avoidance, 60 min. post-drug): 40%
- ED50 (avoidance behavior; Rattus norvegicus, po, 7-10 days after administration, read-out: ABD50): 13.5 mg/kg
- inhibition in vivo at 40 mg/kg (avoidance behavior; Rattus norvegicus, 40 mg/kg po, 24 hrs. post-drug, read-out: Percentage Block of Avoidance, 24 hrs. post-drug): 77%
- inhibition in vivo at 40 mg/kg (avoidance behavior; Rattus norvegicus, 40 mg/kg po, at the indicated duration, read-out: Avoidance block at Duration of Sig. Activity (AB)): 30%
- inhibition in vivo at 40 mg/kg (avoidance behavior; Rattus norvegicus, 40 mg/kg po, at time of peak effect, read-out: Avoidance block at Time of Peak Effect (AB)): 90%
- duration of neuroleptic effect (in words) (avoidance behavior; discrete avoidance procedure): several weeks
- time of maximum neuroleptic activity after administration (avoidance behavior; p.o.): 7 to 10 days
- Pole-Climb Avoidance, % Block (Pole-Climb Avoidance; 1-4 hours): 30%
- Pole-Climb Avoidance, % Block (Pole-Climb Avoidance; 1 week): 50%
- Pole-Climb Avoidance, % Block (Pole-Climb Avoidance; 2 weeks): 44%
- Pole-Climb Avoidance, % Block (Pole-Climb Avoidance; 3 weeks): 11%
- Continuous Avoidance, % Decrease of Responding (Continuous Avoidance [1]; 1-4 hours): 0%
- Continuous Avoidance, % Decrease of Responding (Continuous Avoidance [1]; 1 week): 97%
- Continuous Avoidance, % Decrease of Responding (Continuous Avoidance [1]; 2-4 hours): 59%
- Continuous Avoidance, % Decrease of Responding (Continuous Avoidance [1]; 2 weeks): 96%
- Continuous Avoidance, % Decrease of Responding (Continuous Avoidance [1]; 3 weeks): 93%
- Continuous Avoidance, % Decrease of Responding (Continuous Avoidance [1]; 4 weeks): 84%
- Continuous Avoidance, % Decrease of Responding (Continuous Avoidance [1]; 5 weeks): 82%
- Continuous Avoidance, % Decrease of Responding (Continuous Avoidance [1]; 6 weeks): 55%
- Continuous Avoidance, % Decrease of Responding (Continuous Avoidance [1]; 7 weeks): 48%
- Continuous Avoidance, % Decrease of Responding (Continuous Avoidance [1]; 8 weeks): 32%
- minimal effective dose (Continuous Avoidance [2]; Primates, 168 h, Squirrel Monkey, PO, 7 Days Post-Drug, read-out: Continuous Avoidance MED Shocks): < 5 mg/kg
- Continuous Avoidance, % Decrease of Responding (Continuous Avoidance [2]; 1-4 hours): 0%
- Continuous Avoidance, % Decrease of Responding (Continuous Avoidance [2]; 1 week): 35%
- Continuous Avoidance, % Decrease of Responding (Continuous Avoidance [2]; 2-4 hours): 15%
- Continuous Avoidance, % Decrease of Responding (Continuous Avoidance [2]; 2 weeks): 37%
- Continuous Avoidance, % Decrease of Responding (Continuous Avoidance [2]; 3 weeks): 24%
- ED50 ([3]; Canis lupus familiaris, 168 h, Dog, SC, 7 Days Post-Drug, read-out: Anti-Apomorphine Emesis ED50): < 5 mg/kg
- Apomorphine Induced Emesis % Antagonism ([3]; 1-4 hours): 93%
- Apomorphine Induced Emesis % Antagonism ([3]; 1 week): 100%
- Apomorphine Induced Emesis % Antagonism ([3]; 2-4 hours): 100%
- Apomorphine Induced Emesis % Antagonism ([3]; 2 weeks): 100%
- Apomorphine Induced Emesis % Antagonism ([3]; 3 weeks): 100%
- Apomorphine Induced Emesis % Antagonism ([3]; 4 weeks): 100%
- Apomorphine Induced Emesis % Antagonism ([3]; 5 weeks): 100%
- Apomorphine Induced Emesis % Antagonism ([3]; 6 weeks): 100%
- Apomorphine Induced Emesis % Antagonism ([3]; 7 weeks): 56%
- Apomorphine Induced Emesis % Antagonism ([3]; 8 weeks): 40%
- Serum Prolactin Levels % Increase (Serum Prolactin; 1-4 hours): 215%
- Serum Prolactin Levels % Increase (Serum Prolactin; 1 week): 525%
- Serum Prolactin Levels % Increase (Serum Prolactin; 2-4 hours): 97%
- Serum Prolactin Levels % Increase (Serum Prolactin; 3 weeks): 251%
- Serum Prolactin Levels % Increase (Serum Prolactin; 4 weeks): 56%
- ED50 ([4]; 168 h, Rat, PO, 7 Days Post-Drug): < 15 mg/kg
- Amphetamine Induced Rotation % Antagonism ([4]; 1-4 hours): 14%
- Amphetamine Induced Rotation % Antagonism ([4]; 1 week): 97%
- Amphetamine Induced Rotation % Antagonism ([4]; 2 weeks): 95%
- Amphetamine Induced Rotation % Antagonism ([4]; 3 weeks): 87%
- Amphetamine Induced Rotation % Antagonism ([4]; 4 weeks): 87%
- Amphetamine Induced Rotation % Antagonism ([4]; 5 weeks): 62%
- Amphetamine Induced Rotation % Antagonism ([4]; 6 weeks): 28%
- Amphetamine Induced Rotation % Antagonism ([4]; 7 weeks): 4%
- ED50 [5]: 19.6 mg/kg
- IC50 [6]: 1.8 nM
- Dopamine Turnover-Brain, Caudate [7]: Signif. .uparw.
- Dopamine Turnover-Brain, Limbic and Remainder [8]: Not signif.
- IC50 [9]: 500 nM
- IC50 (Prolactin Secretion): 15 nM
- LD50 at 24 h ([10]; ip, 24 hours): 77.5 mg/kg
- LD50 at 168 h ([10]; po, 7 days): 45 mg/kg
- revertant colonies (Ames) (revertant colonies): increased revertant colonies at the highest concentration tested
